The record followed here is US8735424B2 (Novartis AG, priority 2008, dated 2014).

pEC50, pIC50: −log10 of the molar value.

For one assay, the target named is PIM3 (Homo sapiens, UniProt Q86V86). Put plainly: Pim3 ATP depletion assay. The conditions noted are these: 40 μM ATP. In kind it is biochemical. Here is the method: The activity of PIM3 is measured using a luciferase-luciferin based ATP detection reagent to quantify ATP depletion resulting from kinase-catalyzed phosphoryl transfer to a peptide substrate. Compounds to be tested are dissolved in 100% DMSO and directly distributed into white 384-well plates at 0.5 μl per well. To start the reaction, 10 μl of 10 nM Pim3 kinase and 200 μM BAD peptide (RSRHSSYPAGT-OH) in assay buffer (50 mM HEPES pH 7.5, 5 mM MgCl2, 1 mM DTT, 0.05% BSA) is added into each well. After 15 minutes, 10 μl of 80 μM ATP in assay buffer is added. Final assay concentrations are 5 nM PIM1, 40 μM ATP, 100 μM BAD peptide and 2.5% DMSO. The reaction is performed until approximately 50% of the ATP is depleted, then stopped by the addition of 20 μl KinaseGlo Plus (Promega Corporation) solution. The stopped reaction is incubated for 10 minutes and the remaining ATP detected via luminescence on the Victor2 (Perkin Elmer).

In another assay the target is PIM2 (Homo sapiens, UniProt Q9P1W9). Put plainly: Pim2 ATP depletion assay. Format: biochemical. The conditions noted are these: 4 μM ATP, 5 nM PIM2. Here is the method: The activity of PIM2 is measured using a luciferase-luciferin based ATP detection reagent to quantify ATP depletion resulting from kinase-catalyzed phosphoryl transfer to a peptide substrate. Compounds to be tested are dissolved in 100% DMSO and directly distributed into white 384-well plates at 0.5 μl per well. To start the reaction, 10 μl of 10 nM Pim2 kinase and 20 μM BAD peptide (RSRHSSYPAGT-OH) in assay buffer (50 mM HEPES pH 7.5, 5 mM MgCl2, 1 mM DTT, 0.05% BSA) is added into each well. After 15 minutes, 10 μl of 8 μM ATP in assay buffer is added. Final assay concentrations are 5 nM PIM2, 4 μM ATP, 10 μM BAD peptide and 2.5% DMSO. The reaction is performed until approximately 50% of the ATP is depleted, then stopped with the addition of 20 μl KinaseGlo Plus (Promega Corporation) solution. The stopped reaction is incubated for 10 minutes and the remaining ATP detected via luminescence on the Victor2 (Perkin Elmer).

Another assay has as its target PIM1 (Homo sapiens, UniProt P11309). The experiment in a line: Pim1 ATP depletion assay. The following applies: 20 μM ATP, 2.5 nM PIM1. In kind it is biochemical. Here is the method: The activity of PIM1 is measured using a luciferase-luciferin based ATP detection reagent to quantify ATP depletion resulting from kinase-catalyzed phosphoryl transfer to a peptide substrate. Compounds to be tested are dissolved in 100% DMSO and directly distributed into white 384-well plates at 0.5 μl per well. To start the reaction, 10 μl of 5 nM Pim1 kinase and 80 μM BAD peptide (RSRHSSYPAGT-OH) in assay buffer (50 mM HEPES pH 7.5, 5 mM MgCl2, 1 mM DTT, 0.05% BSA) is added into each well. After 15 minutes, 10 μl of 40 μM ATP in assay buffer is added. Final assay concentrations are 2.5 nM PIM1, 20 μM ATP, 40 μM BAD peptide and 2.5% DMSO. The reaction is performed until approximately 50% of the ATP is depleted, then stopped with the addition of 20 μl KinaseGlo Plus (Promega Corporation) solution. The stopped reaction is incubated for 10 minutes and the remaining ATP detected via luminescence on the Victor2 (Perkin Elmer). […] IC50, the half maximal inhibitory concentration, represents the concentration of a test compound that is required for 50% inhibition of its target in vitro.

A further assay concerns KMS11 cells. Put plainly: Cell proliferation assay (CellTiter-Glo). In kind it is cell-based. The following applies: KMS-11, 72 h; KMS11 human myeloma cell line, 3 days. The method, then: KMS11 (human myeloma cell line), were cultured in IMDM supplemented with 10% FBS, sodium pyruvate and antibiotics. Cells were plated in the same medium at a density of 2000 cells per well into 96 well tissue culture plates, with outside wells vacant, on the day of assay. MM1.s (human myeloma cell line), were cultured in RPMI1640 supplemented with 10% FBS, sodium pyruvate and antibiotics. Cells were plated in the same medium at a density of 5000 cells per well into 96 well tissue culture plates, with outside wells vacant, on the day of assay.
Test compounds supplied in DMSO were diluted into DMSO at 500 times the desired final concentrations before dilution into culture media to 2 times final concentrations. Equal volumes of 2× compounds were added to the cells in 96 well plates and incubated at 37° C. for 3 days.
After 3 days plates were equilibrated to room temperature and equal volume of CellTiter-Glow Reagent (Promega) was added to the culture wells. The plates were agitated briefly and luminescent signal was measured with luminometer. The percent inhibition of the signal seen in cells treated with DMSO alone vs. cells treated with control compound was calculated and used to determine EC50 values (i.e., the concentration of a test compound that is required to obtain 50% of the maximum effect in the cells) for tested compounds, as shown in Example 41.
On the technique in general: Cellular ATP, detected with luciferase, serves as a proxy for viable cell number.

PIM1, sequence (P11309 whole entry): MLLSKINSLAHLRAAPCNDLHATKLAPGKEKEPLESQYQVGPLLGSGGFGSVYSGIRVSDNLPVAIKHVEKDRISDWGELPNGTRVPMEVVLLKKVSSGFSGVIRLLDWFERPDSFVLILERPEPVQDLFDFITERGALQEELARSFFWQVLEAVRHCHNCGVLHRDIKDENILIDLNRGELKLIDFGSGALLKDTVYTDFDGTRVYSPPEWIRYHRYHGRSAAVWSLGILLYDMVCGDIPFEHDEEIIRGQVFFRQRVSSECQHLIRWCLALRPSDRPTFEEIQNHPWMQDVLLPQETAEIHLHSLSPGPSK
PIM2, sequence (Q9P1W9 whole entry): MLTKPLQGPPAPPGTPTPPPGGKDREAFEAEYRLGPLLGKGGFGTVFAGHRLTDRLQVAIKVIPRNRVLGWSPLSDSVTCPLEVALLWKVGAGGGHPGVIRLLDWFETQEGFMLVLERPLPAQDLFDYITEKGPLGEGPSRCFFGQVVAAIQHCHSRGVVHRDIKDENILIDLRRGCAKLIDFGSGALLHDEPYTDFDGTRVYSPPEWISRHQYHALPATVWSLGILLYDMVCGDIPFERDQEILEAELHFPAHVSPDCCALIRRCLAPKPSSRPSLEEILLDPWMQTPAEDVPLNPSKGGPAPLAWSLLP

Usually pIC50 stands for the negative decadic logarithm of the IC50, by convention in mol/L. What is called pEC50 is −log10 of the EC50, conventionally taken in molar units. On to `Nc1ccc(-c2c(F)cccc2F)nc1-c1cc2c(N3CCC[C@H](N)C3)ccnc2cn1` [Example 9, (S)-2-(4-(3-aminopiperidin-1-yl)-1,7-naphthyridin-6-yl)-6-(2,6-difluorophenyl)pyridin-3-amine], for which the negative logarithm of the IC50 (pIC50) against PIM3 was 8.22; against PIM2, 7.40; against PIM1 it was 9.00. This compound showed a negative-log EC50 (pEC50) with KMS11 cells of 5.43.
For `Nc1ccc(-c2ccccc2F)nc1-c1cc2c(N3CCC[C@H](N)C3)ccnc2cn1` [Example 11, (S)-2-(4-(3-aminopiperidin-1-yl)-1,7-naphthyridin-6-yl)-6-(2-fluorophenyl)pyridin-3-amine], the pIC50 against PIM3 is 8.52; on PIM2, 7.23; at PIM1 it was 8.70. In the assay on KMS11 cells, this compound showed a negative logarithm of the EC50 (pEC50) of 5.28.
For `C[C@@H]1C[C@H](N)CN(c2ccnc3ccc(-c4cccc(-c5nccs5)n4)cc23)C1` [Example 31, (3S,5R)-5-methyl-1-(6-(6-(thiazol-2-yl)pyridin-2-yl)quinolin-4-yl)piperidin-3-amine], the pIC50 is 8.22 at PIM3, 7.92 at PIM2 and 8.30 on PIM1. The compound further showed a negative logarithm of the EC50 (pEC50) with KMS11 cells of 6.10.
Consider `Nc1ccc(-c2cccs2)nc1-c1cc2c(N3CCC[C@H](N)C3)ccnc2cn1` [Example 13, (S)-2-(4-(3-aminopiperidin-1-yl)-1,7-naphthyridin-6-yl)-6-(thiophen-2-yl)pyridin-3-amine], for which the pIC50 at PIM3 was 8.40; against PIM2 it was 7.27; at PIM1, 8.52. This compound gave a pEC50 in the assay on KMS11 cells of 5.33.
For the compound `Nc1ccc(-c2cc(C(=O)NC3CCCCC3)ccc2F)nc1-c1cc2c(N3CCC[C@H](N)C3)ccnc2cn1` [Example 15, (S)-3-(5-amino-6-(4-(3-aminopiperidin-1-yl)-1,7-naphthyridin-6-yl)pyridin-2-yl)-N-cyclohexyl-4-fluorobenzamide], the negative logarithm of the IC50 (pIC50) at PIM3 was 7.66; at PIM2, 7.13; at PIM1, 8.05. This compound also gave a negative-log EC50 (pEC50) with KMS11 cells of 5.51.
In the same order, the values of `Nc1ccc(-c2ccc(F)cc2)nc1-c1cc2c(N3CCC[C@H](N)C3)ccnc2cn1` [Example 19, (S)-2-(4-(3-aminopiperidin-1-yl)-1,7-naphthyridin-6-yl)-6-(4-fluorophenyl)pyridin-3-amine] are 8.15, 6.99, 8.22 and 5.40.
Regarding `CC(C)NC(=O)c1ccc(F)c(-c2ccc(N)c(-c3cc4c(N5CCC[C@H](N)C5)ccnc4cn3)n2)c1` [Example 10, (S)-3-(5-amino-6-(4-(3-aminopiperidin-1-yl)-1,7-naphthyridin-6-yl)pyridin-2-yl)-4-fluoro-N-isopropylbenzamide], the negative logarithm of the IC50 (pIC50) on PIM3 was 7.89; at PIM2 it was 7.32; at PIM1, 8.52. The pEC50 in the assay with KMS11 cells was 5.41.
Take `Nc1cnc(-c2ccccc2F)nc1-c1cc2c(N3CCC[C@H](N)C3)ccnc2cn1` [Example 6, (S)-4-(4-(3-aminopiperidin-1-yl)-1,7-naphthyridin-6-yl)-2-(2-fluorophenyl)pyrimidin-5-amine]: the pIC50 against PIM3 was 8.52; at PIM2, 7.23; at PIM1, 8.40. The same compound showed a pEC50 in the assay on KMS11 cells of 5.74.
Consider `CC(C)NC(=O)c1ccc(F)c(-c2ccc(N)c(-c3cc4c(N5CCC[C@@H](N)C5)ccnc4cn3)n2)c1` [Example 8, (R)-3-(5-amino-6-(4-(3-aminopiperidin-1-yl)-1,7-naphthyridin-6-yl)pyridin-2-yl)-4-fluoro-N-isopropylbenzamide], for which the negative logarithm of the IC50 (pIC50) was 7.68 against PIM3, 7.09 against PIM2 and 7.80 on PIM1. For the same compound, the pEC50 in the assay on KMS11 cells was 5.35.
Take `Nc1ccc(-c2c(F)cccc2F)nc1-c1cc2c(N3CCC[C@@H](N)C3)ccnc2cn1` [Example 7, (R)-2-(4-(3-aminopiperidin-1-yl)-1,7-naphthyridin-6-yl)-6-(2,6-difluorophenyl)pyridin-3-amine]: the negative-log IC50 (pIC50) on PIM3 was 8.15; at PIM2, 7.62; against PIM1, 8.30. This compound showed a negative logarithm of the EC50 (pEC50) with KMS11 cells of 5.55.
For `Nc1ccc(-c2nccs2)nc1-c1cc2c(N3CCC[C@H](N)C3)ccnc2cn1` [Example 5, (S)-2-(4-(3-aminopiperidin-1-yl)-1,7-naphthyridin-6-yl)-6-(thiazol-2-yl)pyridin-3-amine], the pIC50 on PIM3 was 8.40; against PIM2, 8.05; on PIM1 it was 9.00. The compound further showed a negative-log EC50 (pEC50) in the assay on KMS11 cells of 6.08.
Consider `Nc1ccc(-c2ccc(S(N)(=O)=O)cc2)nc1-c1cc2c(N3CCC[C@H](N)C3)ccnc2cn1` [Example 23, (S)-4-(5-amino-6-(4-(3-aminopiperidin-1-yl)-1,7-naphthyridin-6-yl)pyridin-2-yl)benzenesulfonamide], for which the pIC50 on PIM3 was 8.15; at PIM2, 7.47; against PIM1, 8.70. The compound also gave a negative logarithm of the EC50 (pEC50) with KMS11 cells of 5.11.
For `N[C@H]1CCCN(c2ccnc3cnc(-c4cccc(-c5nccs5)n4)cc23)C1` [Example 25, (S)-1-(6-(6-(thiazol-2-yl)pyridin-2-yl)-1,7-naphthyridin-4-yl)piperidin-3-amine], the values for the pIC50 on PIM3, on PIM2 and on PIM1 were 8.15, 7.22 and 8.22, respectively. In addition, the negative logarithm of the EC50 (pEC50) in the assay on KMS11 cells is 6.23.
For `CS(=O)(=O)c1ccc(-c2ccc(N)c(-c3cc4c(N5CCC[C@H](N)C5)ccnc4cn3)n2)cc1` [Example 24, (S)-2-(4-(3-aminopiperidin-1-yl)-1,7-naphthyridin-6-yl)-6-(4-(methylsulfonyl)phenyl)pyridin-3-amine], the pIC50 on PIM3 was 8.15; on PIM2, 7.47; on PIM1, 8.70. Besides, in the assay with KMS11 cells, the negative-log EC50 (pEC50) is 5.92.
Turning to `N[C@H]1CCCN(c2ccnc3ccc(-c4nccc(-c5nccs5)n4)cc23)C1` [Example 28, (S)-1-(6-(4-(thiazol-2-yl)pyrimidin-2-yl)quinolin-4-yl)piperidin-3-amine], the pIC50 at PIM3 was 8.15; against PIM2, 7.17; against PIM1, 8.15. In the assay with KMS11 cells, this compound had a negative-log EC50 (pEC50) of 6.11.
With `Nc1ccc(-c2cc(C(=O)Nc3ccccc3)ccc2F)nc1-c1cc2c(N3CCC[C@H](N)C3)ccnc2cn1` [Example 12, (S)-3-(5-amino-6-(4-(3-aminopiperidin-1-yl)-1,7-naphthyridin-6-yl)pyridin-2-yl)-4-fluoro-N-phenylbenzamide], the pIC50 on PIM3 was 7.68; against PIM2, 7.01; on PIM1, 8.05. This compound also had a pEC50 with KMS11 cells of 5.39.
For the compound `Nc1ccc(-c2nccs2)nc1-c1cc2c(N3CCC[C@H](N)C3)c(F)cnc2cn1` [Example 1, (S)-2-(4-(3-aminopiperidin-1-yl)-3-fluoro-1,7-naphthyridin-6-yl)-6-(thiazol-2-yl)pyridin-3-amine], the results for the pIC50 against PIM3, against PIM2 and on PIM1 were 8.15, 7.40 and 8.70, respectively. The negative-log EC50 (pEC50) in the assay with KMS11 cells was 6.06.
